Counter-ions that a name gives are not always drawn.
Assay: Bloodwork: complete blood count, electrolytes, extended blood chemistry
Type: in vivo, sheep
Conditions: for Total Bili: ref 0.14-0.32; for Creatinine: ref 1-2.7; for Albumin: ref 2.4-3; for K+: ref 3.9-5.4; for Phos: ref 5-7.3; for Total Prot: ref 6-7.9
Description: Indirect blood pressure, pulse recording, pain testing (mechanical stimulus device, cold and warm water baths see description in procedure) and weight were taken on days 1, 3, 7, 15, 22, 29, 36, and 43. Venous blood samples (15 ml drawn from the jugular vein with Vacutainer brand blood collection tubes) for complete blood count, electrolytes, and extended blood chemistry were drawn on days 1, 15, and 43 (mild procedure only light hand restraint necessary).

Cc1ncc2n1-c1ccc(Cl)cc1C(c1ccccc1F)=NC2 [Midazolam, midazolam hydrochloride]
AST (sheep #473, 3 mg/day, Day 1): 239 U/L
Alk Phos (sheep #473, 3 mg/day, Day 1): 41 U/L
BUN (sheep #473, 3 mg/day, Day 1): 10 mg/dL
CPK (sheep #473, 3 mg/day, Day 1): 392 U/L
Cholesterol (sheep #473, 3 mg/day, Day 1): 72 mg/dL
Differential Count: Eosin (sheep #473, 3 mg/day, Day 1): 1%
Differential Count: Lymph (sheep #473, 3 mg/day, Day 1): 39%
Differential Count: Mono (sheep #473, 3 mg/day, Day 1): 1%
Differential Count: Seg (sheep #473, 3 mg/day, Day 1): 59%
Gamma GT (sheep #473, 3 mg/day, Day 1): 69 U/L
Glucose (sheep #473, 3 mg/day, Day 1): 91 mg/dL
Hct (sheep #473, 3 mg/day, Day 1): 33.0%
Hgb (sheep #473, 3 mg/day, Day 1): 11.3 g/dL
MCH (sheep #473, 3 mg/day, Day 1): 9.7 pg
MCHC (sheep #473, 3 mg/day, Day 1): 32.2 G/dl
MCV (sheep #473, 3 mg/day, Day 1): 30.0 fL
Na+ (sheep #473, 3 mg/day, Day 1): 153 mEq/l
Platlet Count (sheep #473, 3 mg/day, Day 1): 666000 µL⁻¹
RBC (sheep #473, 3 mg/day, Day 1): 1.1e+07 µL⁻¹
WBC (sheep #473, 3 mg/day, Day 1): 5800 µL⁻¹
Total Bili (sheep #473, 3 mg/day, Day 1): 0.2 mg/dL
Creatinine (sheep #473, 3 mg/day, Day 1): 1.0 mg/dL
Albumin (sheep #473, 3 mg/day, Day 1): 3.4 g/dL
K+ (sheep #473, 3 mg/day, Day 1): 4.4 mEq/l
Phos (sheep #473, 3 mg/day, Day 1): 6.9 mg/dL
Total Prot (sheep #473, 3 mg/day, Day 1): 6.5 g/dL
ALT (sheep #473, 3 mg/day, Day 15): 1 U/L
AST (sheep #473, 3 mg/day, Day 15): 85 U/L
Alk Phos (sheep #473, 3 mg/day, Day 15): 59 U/L
BUN (sheep #473, 3 mg/day, Day 15): 10 mg/dL
CPK (sheep #473, 3 mg/day, Day 15): 98 U/L
Cholesterol (sheep #473, 3 mg/day, Day 15): 79 mg/dL
Differential Count: Eosin (sheep #473, 3 mg/day, Day 15): 6%
Differential Count: Lymph (sheep #473, 3 mg/day, Day 15): 53%
Differential Count: Mono (sheep #473, 3 mg/day, Day 15): 1%
Differential Count: Seg (sheep #473, 3 mg/day, Day 15): 40%
Gamma GT (sheep #473, 3 mg/day, Day 15): 59 U/L
Glucose (sheep #473, 3 mg/day, Day 15): 74 mg/dL
Hct (sheep #473, 3 mg/day, Day 15): 41.0%
Hgb (sheep #473, 3 mg/day, Day 15): 12.9 g/dL
MCH (sheep #473, 3 mg/day, Day 15): 9.3 pg
MCHC (sheep #473, 3 mg/day, Day 15): 31.5 G/dl
MCV (sheep #473, 3 mg/day, Day 15): 29.6 fL
Na+ (sheep #473, 3 mg/day, Day 15): 152 mEq/l
Platlet Count (sheep #473, 3 mg/day, Day 15): 336000 µL⁻¹
RBC (sheep #473, 3 mg/day, Day 15): 1.25e+07 µL⁻¹
WBC (sheep #473, 3 mg/day, Day 15): 5100 µL⁻¹
Total Bili (sheep #473, 3 mg/day, Day 15): 0.1 mg/dL
Creatinine (sheep #473, 3 mg/day, Day 15): 1.2 mg/dL
Albumin (sheep #473, 3 mg/day, Day 15): 3.7 g/dL
K+ (sheep #473, 3 mg/day, Day 15): 4.6 mEq/l
Phos (sheep #473, 3 mg/day, Day 15): 5.8 mg/dL
Total Prot (sheep #473, 3 mg/day, Day 15): 6.7 g/dL
ALT (sheep #473, 3 mg/day, Day 43): 8 U/L
AST (sheep #473, 3 mg/day, Day 43): 61 U/L
Alk Phos (sheep #473, 3 mg/day, Day 43): 73 U/L
BUN (sheep #473, 3 mg/day, Day 43): 15 mg/dL
CPK (sheep #473, 3 mg/day, Day 43): 82 U/L
Cholesterol (sheep #473, 3 mg/day, Day 43): 78 mg/dL
Differential Count: Eosin (sheep #473, 3 mg/day, Day 43): 2%
Differential Count: Lymph (sheep #473, 3 mg/day, Day 43): 60%
Differential Count: Mono (sheep #473, 3 mg/day, Day 43): 2%
Differential Count: Seg (sheep #473, 3 mg/day, Day 43): 36%
Gamma GT (sheep #473, 3 mg/day, Day 43): 58 U/L
Glucose (sheep #473, 3 mg/day, Day 43): 59 mg/dL
Hct (sheep #473, 3 mg/day, Day 43): 41.5%
Hgb (sheep #473, 3 mg/day, Day 43): 12.9 g/dL
MCH (sheep #473, 3 mg/day, Day 43): 9.4 pg
MCHC (sheep #473, 3 mg/day, Day 43): 31.1 G/dl
MCV (sheep #473, 3 mg/day, Day 43): 30.2 fL
Na+ (sheep #473, 3 mg/day, Day 43): 150 mEq/l
Platlet Count (sheep #473, 3 mg/day, Day 43): 263000 µL⁻¹
RBC (sheep #473, 3 mg/day, Day 43): 1.373e+07 µL⁻¹
WBC (sheep #473, 3 mg/day, Day 43): 3400 µL⁻¹
Total Bili (sheep #473, 3 mg/day, Day 43): 0.0 mg/dL
Creatinine (sheep #473, 3 mg/day, Day 43): 1.5 mg/dL
Albumin (sheep #473, 3 mg/day, Day 43): 3.4 g/dL
K+ (sheep #473, 3 mg/day, Day 43): 5.6 mEq/l
Phos (sheep #473, 3 mg/day, Day 43): 5.3 mg/dL
Total Prot (sheep #473, 3 mg/day, Day 43): 6.4 g/dL
ALT (sheep #498, 10 mg/day, Day 1): 8.0 U/L
AST (sheep #498, 10 mg/day, Day 1): 95 U/L
Alk Phos (sheep #498, 10 mg/day, Day 1): 45 U/L
BUN (sheep #498, 10 mg/day, Day 1): 9.0 Mg/dl
CPK (sheep #498, 10 mg/day, Day 1): 89 U/L
Cholesterol (sheep #498, 10 mg/day, Day 1): 63 Mg/dl
Differential Count: Atyp lym (sheep #498, 10 mg/day, Day 1): 2%
Differential Count: Baso (sheep #498, 10 mg/day, Day 1): 1%
Differential Count: Lymph (sheep #498, 10 mg/day, Day 1): 28%
Differential Count: Mono (sheep #498, 10 mg/day, Day 1): 1%
Differential Count: Seg (sheep #498, 10 mg/day, Day 1): 68%
Gamma GT (sheep #498, 10 mg/day, Day 1): 74 U/L
Glucose (sheep #498, 10 mg/day, Day 1): 131 mg/dL
Hct (sheep #498, 10 mg/day, Day 1): 31.0%
Hgb (sheep #498, 10 mg/day, Day 1): 11.1 g/dL
MCH (sheep #498, 10 mg/day, Day 1): 9.6 pg
MCHC (sheep #498, 10 mg/day, Day 1): 32.0 g/dL
MCV (sheep #498, 10 mg/day, Day 1): 30.1 fL
Na+ (sheep #498, 10 mg/day, Day 1): 151 mEq/l
Platlet Count (sheep #498, 10 mg/day, Day 1): 592000 µL⁻¹
RBC (sheep #498, 10 mg/day, Day 1): 1.153e+07 µL⁻¹
WBC (sheep #498, 10 mg/day, Day 1): 6000 µL⁻¹
Total Bili (sheep #498, 10 mg/day, Day 1): 0.2 mg/dL
Creatinine (sheep #498, 10 mg/day, Day 1): 1.6 mg/dL
Albumin (sheep #498, 10 mg/day, Day 1): 3.9 g/dL
K+ (sheep #498, 10 mg/day, Day 1): 4.4 mEq/l
Phos (sheep #498, 10 mg/day, Day 1): 3.8 Mg/dl
Total Prot (sheep #498, 10 mg/day, Day 1): 6.4 g/dL
ALT (sheep #498, 10 mg/day, Day 15): 7.0 U/L
AST (sheep #498, 10 mg/day, Day 15): 86 U/L
Alk Phos (sheep #498, 10 mg/day, Day 15): 87 U/L
BUN (sheep #498, 10 mg/day, Day 15): 16 Mg/dl
CPK (sheep #498, 10 mg/day, Day 15): 154 U/L
Cholesterol (sheep #498, 10 mg/day, Day 15): 63 Mg/dl
Differential Count: Bands (sheep #498, 10 mg/day, Day 15): 8%
Differential Count: Lymph (sheep #498, 10 mg/day, Day 15): 66%
Differential Count: Mono (sheep #498, 10 mg/day, Day 15): 3%
Differential Count: Seg (sheep #498, 10 mg/day, Day 15): 23%
Gamma GT (sheep #498, 10 mg/day, Day 15): 90 U/L
Glucose (sheep #498, 10 mg/day, Day 15): 78 mg/dL
Hct (sheep #498, 10 mg/day, Day 15): 44.8%
Hgb (sheep #498, 10 mg/day, Day 15): 13.3 g/dL
MCH (sheep #498, 10 mg/day, Day 15): 9.2 pg
MCHC (sheep #498, 10 mg/day, Day 15): 29.7 g/dL
MCV (sheep #498, 10 mg/day, Day 15): 31.1 fL
Na+ (sheep #498, 10 mg/day, Day 15): 151 mEq/l
Platlet Count (sheep #498, 10 mg/day, Day 15): 42000 µL⁻¹
RBC (sheep #498, 10 mg/day, Day 15): 1.439e+07 µL⁻¹
WBC (sheep #498, 10 mg/day, Day 15): 8600 µL⁻¹
Total Bili (sheep #498, 10 mg/day, Day 15): 0.1 mg/dL
Creatinine (sheep #498, 10 mg/day, Day 15): 1.8 mg/dL
Albumin (sheep #498, 10 mg/day, Day 15): 3.4 g/dL
K+ (sheep #498, 10 mg/day, Day 15): 5.1 mEq/l
Phos (sheep #498, 10 mg/day, Day 15): 6.4 Mg/dl
Total Prot (sheep #498, 10 mg/day, Day 15): 6.7 g/dL
ALT (sheep #498, 10 mg/day, Day 43): 8.0 U/L
AST (sheep #498, 10 mg/day, Day 43): 89 U/L
Alk Phos (sheep #498, 10 mg/day, Day 43): 87 U/L
BUN (sheep #498, 10 mg/day, Day 43): 13 Mg/dl
CPK (sheep #498, 10 mg/day, Day 43): 203 U/L
Cholesterol (sheep #498, 10 mg/day, Day 43): 67 Mg/dl
Differential Count: Eosin (sheep #498, 10 mg/day, Day 43): 3%
Differential Count: Lymph (sheep #498, 10 mg/day, Day 43): 63%
Differential Count: Mono (sheep #498, 10 mg/day, Day 43): 1%
Differential Count: Seg (sheep #498, 10 mg/day, Day 43): 33%
Gamma GT (sheep #498, 10 mg/day, Day 43): 65 U/L
Glucose (sheep #498, 10 mg/day, Day 43): 77 mg/dL
Hct (sheep #498, 10 mg/day, Day 43): 34.7%
Hgb (sheep #498, 10 mg/day, Day 43): 10.5 g/dL

Source: patent publication US20040006070A1, “Intraspinal continuous infusion of midazolam hydrochloride for the treatment of pain” (priority 2002, published 2004)
